Source: PMC7335187, “Super-assembly of ER-phagy receptor Atg40 induces local ER remodeling at contacts with forming autophagosomal membranes” (Nature Communications, 2020)
Where a SMILES comes first, the peptide text is derived from it.

Legend:
Type in all cases: binding
LC3B WT = LC3B WT (Rattus norvegicus, UniProt Q62625); test: ITC of peptides with LC3B; details: 25 °C, ± fitting error
Source text: (§1) All plasmids for expression of recombinant proteins and peptides in bacteria were based on a pGEX6P-1 vector (GE Healthcare). Construction of pGEX6P-ScAtg8 (1-116) K26P and pGEX6P-rat LC3B (1-120) was previously described[35],[47]. All mutations were generated by PCR-based mutagenesis. The genes were amplified by PCR and inserted downstream of the HRV 3C protease recognition site by NEBuilder HiFi DNA Assembly Master Mix (New England Biolabs) except for that encoding human GABARAP (1-116), which was inserted using restriction enzymes for the NdeI and BamHI sites. Plasmids for expression of fusion proteins for crystallization were constructed by inserting the genes encoding Atg40^237–252, human FAM134B^450–468, human SEC62^361–376 with the T367D mutation, and human RTN3^245–264 isoform e into upstream of the sequence encoding Atg8 K26P of pGEX6P-Atg8 (the K26P mutation was introduced for stabilizing Atg8) or upstream of the sequence encoding GABARAP of pGEX6P-GABARAP (with the F3S V4T mutations for enhancing crystallization). For phase-separation experiments, the mCherry and BNDL1[25],[26] sequences were inserted into upstream and downstream of the ATG8 gene in pGEX6P-Atg8 K26P, respectively. pGEX-SNAP-40C was constructed by the removal of the HRV 3C protease recognition site and the insertion of the SNAP sequence from pSNAP-tag(T7) vector (New England Biolabs) with a linker (Gly–Gly–Gly–Ser–Gly–Gly–Gly) and Atg40^194–256 following a linker (Ser–Ala–Ser–Ser) to upstream and downstream of GST in pGEX6P-1 vector, respectively. In the construction of plasmids for peptide production, a Tyr residue was attached to their C termini for enabling the quantification by absorbance at 280 nm (Supplementary Table 4).
(§2) Some of peptides (Supplementary Table 4) and all proteins except Atg40-6His were expressed in E. coli BL21 (DE3). Bacteria were cultured at 37 °C until OD600 became 0.8–1.0 and further cultured at 16 °C with 100 μM IPTG overnight. After centrifugation, the pellets were resuspended with 20 ml PBS with 0.5 mM EDTA and lysed by sonication for 10 min. […]

GABARAPL2 WT = GABARAPL2 WT (Homo sapiens, UniProt P60520); test: ITC of peptides with GABARAPL2; details: 25 °C, GABARAPL2 WT in cell, ± fitting error, N fixed to 1.0 when fitting not convergent
Chain of GABARAPL2 WT (P60520 whole entry): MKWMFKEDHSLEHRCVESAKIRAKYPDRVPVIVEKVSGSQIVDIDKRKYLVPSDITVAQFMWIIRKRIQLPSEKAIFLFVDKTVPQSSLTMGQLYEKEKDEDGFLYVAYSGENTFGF
Protocol: (§3) Some of peptides (Supplementary Table 4) and all proteins except Atg40-6His were expressed in E. coli BL21 (DE3). Bacteria were cultured at 37 °C until OD600 became 0.8–1.0 and further cultured at 16 °C with 100 μM IPTG overnight. After centrifugation, the pellets were resuspended with 20 ml PBS with 0.5 mM EDTA and lysed by sonication for 10 min. After centrifugation, the supernatants were incubated with GST-accept resin (Nacalai tesque). After three times wash by PBS, the proteins were eluted with glutathione buffer (10 mM glutathione and 50 mM Tris pH 8.0). The buffer of the eluates was exchanged with PBS by a Bio-Scale Mini BioGel P-6 desalting column (Bio-Rad). After incubation with GST-fused HRV 3 C protease at 4 °C overnight, the samples were subjected to a GST-accept resin column to remove excised GST and the protease. RTN3^245–264-GABARAP was purified by cation-exchange chromatography using CM Sepharose FF column (GE Healthcare) with 500 mM MES pH 6.0 as buffer B and 50 mM MES pH 6.0 and 1 M NaCl as buffer C. The samples were further subjected to size-exclusion chromatography with 20 mM HEPES pH 6.8, 150 mM sodium chloride except for mCherry-Atg8-CC^tetramer (20 mM HEPES pH 6.8, 500 mM sodium chloride) using a Superdex 75 10/300 or Superdex 200 26/60 column. […]

GABARAPL1 WT = GABARAPL1 WT (Homo sapiens, UniProt Q9H0R8); test: ITC of peptides with GABARAPL1; details: 25 °C, GABARAPL1 WT in cell, ± fitting error
Chain of GABARAPL1 WT (Q9H0R8 whole entry): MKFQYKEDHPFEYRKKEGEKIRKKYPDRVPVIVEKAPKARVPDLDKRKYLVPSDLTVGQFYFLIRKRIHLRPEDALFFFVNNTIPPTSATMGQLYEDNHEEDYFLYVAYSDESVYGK
Protocol: as §3

LC3A WT = LC3A WT (Homo sapiens, UniProt Q9H492); test: ITC of peptides with LC3A; details: 25 °C, LC3A WT in cell, ± fitting error
Protocol: (§4) Some of peptides (Supplementary Table 4) and all proteins except Atg40-6His were expressed in E. coli BL21 (DE3). Bacteria were cultured at 37 °C until OD600 became 0.8–1.0 and further cultured at 16 °C with 100 μM IPTG overnight. After centrifugation, the pellets were resuspended with 20 ml PBS with 0.5 mM EDTA and lysed by sonication for 10 min. After centrifugation, the supernatants were incubated with GST-accept resin (Nacalai tesque). After three times wash by PBS, the proteins were eluted with glutathione buffer (10 mM glutathione and 50 mM Tris pH 8.0). The buffer of the eluates was exchanged with PBS by a Bio-Scale Mini BioGel P-6 desalting column (Bio-Rad). After incubation with GST-fused HRV 3 C protease at 4 °C overnight, the samples were subjected to a GST-accept resin column to remove excised GST and the protease. RTN3^245–264-GABARAP was purified by cation-exchange chromatography using CM Sepharose FF column (GE Healthcare) with 500 mM MES pH 6.0 as buffer B and 50 mM MES pH 6.0 and 1 M NaCl as buffer C. The samples were further subjected to size-exclusion chromatography with 20 mM HEPES pH 6.8, 150 mM sodium chloride except for mCherry-Atg8-CC^tetramer (20 mM HEPES pH 6.8, 500 mM sodium chloride) using a Superdex 75 10/300 or Superdex 200 26/60 column. As described in Supplementary Table 4, the Atg40^237–252 M245A and Atg40^237–252 D243A D247A peptides were synthesized by Cosmo Bio, and the FAM134B^453–460 and SEC62^361–368 peptides were synthesized by BEX Co., Ltd. The Atg40^234–252 peptide and its variants were prepared using Liberty Blue peptide synthesizer (CEM Corporation). After dissolving these synthesized peptides in 300 μl water with ~10 μl ammonium hydroxide, they were subjected to size-exclusion chromatography with 20 mM HEPES pH 6.8 containing 150 mM sodium chloride using a Superdex 75 10/300 column.
Peptides used in ITC are listed in Supplementary Table 4. ITC experiments were performed using Microcal iTC200 calorimeter (Malvern Panalytical), with stirring at 1000 rpm at 25 °C. […]

LC3C WT = LC3C WT (Homo sapiens, UniProt Q9BXW4); test: ITC of peptides with LC3C; details: 25 °C, LC3C WT in cell, ± fitting error, N fixed to 1.0 when fitting not convergent
Chain of LC3C WT (Q9BXW4 whole entry): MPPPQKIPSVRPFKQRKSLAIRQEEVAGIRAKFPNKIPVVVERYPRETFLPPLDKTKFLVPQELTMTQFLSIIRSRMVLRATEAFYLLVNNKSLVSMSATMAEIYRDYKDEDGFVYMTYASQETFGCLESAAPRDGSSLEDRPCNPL
Protocol: as §4
Peptides used in ITC are listed in Supplementary Table 4. ITC experiments were performed using Microcal iTC200 calorimeter (Malvern Panalytical), with stirring at 1000 rpm at 25 °C. Atg40, FAM134B, SEC62, and RTN3 peptides were prepared as injection samples from the syringe. Concentrations of FAM134B, SEC62, and RTN3 peptides were 0.5 mM, whereas those of Atg40^234–252 and Atg40^237–252 peptides were 2.0 and 1.8 mM, respectively. In total, 200 μl Atg8, LC3A, LC3B, LC3C, GABARAP, GABARAPL1, and GABARAPL2 with 10 times lower concentration than the syringe samples were filled in the cell. As an exception, 1.8 mM Atg8 was filled in the cell when 1.8 mM Atg40^237–252 D243A D247A was in a syringe. The titration involved 18 injections of 2 μl of the syringe sample at intervals of 120 s into a cell after one injection of 0.4 μl of syringe sample. […]

GABARAP WT = GABARAP WT (Homo sapiens, UniProt O95166); test: ITC of ER-phagy receptor peptides with GABARAP; details: 25 °C, 0.5 mM peptide in syringe, ± fitting error
Chain of GABARAP WT (O95166 1-116): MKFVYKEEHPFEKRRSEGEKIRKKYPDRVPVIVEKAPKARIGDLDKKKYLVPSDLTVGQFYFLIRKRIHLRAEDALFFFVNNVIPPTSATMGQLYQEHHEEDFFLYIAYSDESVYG
Source text: as §1, §2

Question: Which Kd (LC3B WT; 0.5 mM peptide in syringe, LC3B WT in cell 10 times lower, single-site model) does the source give for CC[C@H](C)[C@H](NC(=O)[C@H](CCC(N)=O)NC(=O)[C@H](CC(=O)O)NC(=O)[C@H](CC(C)C)NC(=O)[C@H](C)NC(=O)[C@H](CO)NC(=O)[C@H](CCC(N)=O)NC(=O)[C@H](CC(=O)O)NC(=O)[C@H](CC(C)C)NC(=O)[C@H](CC(C)C)NC(=O)[C@H](C)NC(=O)[C@H](Cc1ccccc1)NC(=O)[C@H](CC(=O)O)NC(=O)[C@H](CC(=O)O)NC(=O)CNC(=O)[C@H](CCC(=O)O)NC(=O)[C@H](CCC(=O)O)NC(=O)[C@@H](NC(=O)[C@H](CC(=O)O)NC(=O)[C@@H](NC(=O)[C@H](CC(=O)O)NC(=O)[C@H](CCC(=O)O)NC(=O)[C@H](CCC(=O)O)NC(=O)[C@@H]1CCCN1C(=O)CN)[C@@H](C)O)[C@@H](C)O)C(=O)N[C@@H](CCC(=O)O)C(=O)N[C@@H](CO)C(=O)N[C@@H](CCC(=O)O)C(=O)N[C@@H](CC(C)C)C(=O)N[C@@H](Cc1ccc(O)cc1)C(=O)O [FAM134B^444-470 E456A E462A] (H-GPEEDTDTEEGDDFALLDQSALDQIESELY-OH) here?
Answer: Its Kd is 8.2 ± 2.46 µM.

Question: With CC[C@H](C)[C@H](NC(=O)[C@H](CCSC)NC(=O)[C@H](CCC(=O)O)NC(=O)[C@H](Cc1ccccc1)NC(=O)[C@H](CC(=O)O)NC(=O)[C@H](CC(N)=O)NC(=O)CNC(=O)[C@H](CC(N)=O)NC(=O)CNC(=O)[C@H](CO)NC(=O)[C@H](CO)NC(=O)[C@H](Cc1c[nH]cn1)NC(=O)[C@@H]1CCCN1C(=O)CN)C(=O)N[C@H](C(=O)N[C@@H](CCCCN)C(=O)N[C@@H](CCC(=O)O)C(=O)N[C@@H](CCC(=O)O)C(=O)N[C@@H](CC(C)C)C(=O)N[C@@H](CCC(=O)O)C(=O)N[C@@H](CCC(N)=O)C(=O)N[C@@H](CCC(N)=O)C(=O)N[C@H](C(=O)N[C@@H](CC(=O)O)C(=O)N[C@@H](Cc1ccc(O)cc1)C(=O)O)[C@@H](C)O)[C@@H](C)O [SEC62^355-376 WT] (H-GPHSSGNGNDFEMITKEELEQQTDY-OH) as the compound, how does the “N (site), stoichiometry of binding” value (GABARAPL2 WT) read?
Answer: The value was 0.78 ± 0.01.

Question: And the “N (site), stoichiometry of binding” value (LC3B WT; LC3B WT in cell, N fixed to 1.0 when fitting not convergent)?
Answer: The value was 0.74 ± 0.01.

Question: What about the “N (site), stoichiometry of binding” value (GABARAPL1 WT) of the same compound?
Answer: Its value is 0.83 ± 0.01.

Question: And the “N (site), stoichiometry of binding” value (LC3A WT)?
Answer: Its value is 0.78 ± 0.01.

Question: What about the “N (site), stoichiometry of binding” value (LC3C WT) of the same compound?
Answer: Its value is 0.46 ± 0.02.

Question: What does the source list for CC[C@H](C)[C@H](NC(=O)[C@H](CCC(N)=O)NC(=O)[C@H](CC(=O)O)NC(=O)[C@H](CC(C)C)NC(=O)[C@H](CCC(=O)O)NC(=O)[C@H](CO)NC(=O)[C@H](CCC(N)=O)NC(=O)[C@H](CC(=O)O)NC(=O)[C@H](C)NC(=O)[C@H](CC(C)C)NC(=O)[C@H](CCC(=O)O)NC(=O)[C@H](Cc1ccccc1)NC(=O)[C@H](CC(=O)O)NC(=O)[C@H](CC(=O)O)NC(=O)CNC(=O)[C@H](CCC(=O)O)NC(=O)[C@H](CCC(=O)O)NC(=O)[C@@H](NC(=O)[C@H](CC(=O)O)NC(=O)[C@@H](NC(=O)[C@H](CC(=O)O)NC(=O)[C@H](CCC(=O)O)NC(=O)[C@H](CCC(=O)O)NC(=O)[C@@H]1CCCN1C(=O)CN)[C@@H](C)O)[C@@H](C)O)C(=O)N[C@@H](CCC(=O)O)C(=O)N[C@@H](CO)C(=O)N[C@@H](CCC(=O)O)C(=O)N[C@@H](CC(C)C)C(=O)N[C@@H](Cc1ccc(O)cc1)C(=O)O [FAM134B444-470 L458A] (H-GPEEDTDTEEGDDFELADQSELDQIESELY-OH)?
Answer: N (site), stoichiometry of binding (GABARAP WT; GABARAP WT in cell): 0.99 ± 0.03; Kd (GABARAP WT; 20 mM HEPES pH 6.8, 150 mM NaCl, GABARAP WT in cell 10 times lower, single-site model): 2.06 ± 0.61 µM
